# Measured values from article PMC11222350, “Preclinical evaluation of [^18F]FP-CIT, the radiotracer targeting dopamine transporter for diagnosing Parkinson’s disease: pharmacokinetic and efficacy analysis” (EJNMMI Research, 2024).
# Read-outs that look alike come from different tables or passages of the source.
# Key:
# [1] = test system: dopamine transporter; conditions: PET scanning; cited from earlier work
# [2] = test system: dopamine transporter; set-up: method as in PMID 30028339, PMID 23758882, PMID 15908232; conditions: cited from earlier work
# [3] = Metabolites of cold authentic FP-CIT in normal rats (LC-MS); type: in vivo, Sprague–Dawley rats; conditions: FP-CIT 5 mg/kg i.v.; for presence in brain samples: 30 and 60 min
# Method: Male Sprague–Dawley Rats (group III) were anesthetized with 2% isoflurane in oxygen, and cold authentic FP-CIT dissolved in 10% DMSO normal saline diluent was intravenously injected via the tail vein (5 mg/kg; 5 mg/mL). Rats were sacrificed at different time points (30 and 60 min after injection, n = 3 each), and the tissues of interest (i.e., blood, urine, brain, and liver) were harvested. One rat injected with 10% DMSO in normal saline was used as the negative control. Plasma obtained from the blood samples was centrifuged at 3000 rpm for 10 min at room temperature. Urine samples were collected from the urinary bladder using a 1 mL syringe at specific time points. After adding ice-cold acetonitrile at a volume of onefold (v/v) for each plasma and urine sample obtained, the samples were centrifuged at 12,000 rpm for 5 min at 4 °C and the supernatant was collected. The brain and liver tissues were separately homogenized in 1 mL of a 0.9% normal saline/acetonitrile (95:5 v/v) solution using a homogenizer. The obtained homogenate was deproteinized using 500 μL of acetonitrile and centrifuged (4 °C, 12,000 rpm, 10 min), followed by collecting the supernatant. The supernatants obtained by centrifuging the blood, brain, liver, and urine samples were filtered with 2 mL of acetonitrile using a 0.45 μm UHP syringe filter to remove residues. Compounds identified as FP-CIT metabolites in a previous study were modified to a cold-fluorine-authentic form and used as positive controls. The filtered samples were analyzed qualitatively and quantitatively based on the positive controls.
# The ISQEM LC–MS system (Thermo Fisher, Waltham, MA, USA) equipped with OptimaPak C18 (5 μm, 4.6 × 250 mm) column was used. The HPLCf elution condition (A: 0.1% (v/v) trifluoroacetic acid, B: acetonitrile) was as follows: a gradient elution; 90% (A), 10% (B) (0 min) → 40% (A), 60% (B) (35 min); and a flow rate of 1 mL/min. The injection volume of each sample was 20 μL. Electrospray ionization mass was scanned in both the positive and negative modes. Mass range (amu) was 100–2000; dwell times, 0.1 s; source voltage, 3000 V (positive) and − 2000 V (negative); and vaporizer temperature, 550 °C; nitrogen was used as nebulizing gas. For analysis, the masses of [M + H]^+ of cold authentic FP-CIT administrated and metabolites were extracted from the obtained total ion chromatogram, and Gaussian distribution curve fitting was conducted.
# [4] = test system: serotonin transporter; conditions: cited from earlier work
# [5] = cited from earlier work
# [6] = set-up: method as in earlier work; conditions: cited from earlier work
compound,measurement,setting,value
[11CH3]OC(=O)C1C(c2ccc(I)cc2)CC2CCC1N2CCCF (centres unmarked) [[^11C]FP-CIT],time of transient equilibrium in time activity curves (specific binding to the striatum),[1],70 to 90 min
CN1[C@H]2CC[C@@H]1[C@@H](CN(CC[S-])CC[N-]CC[S-])[C@@H](c1ccc(Cl)cc1)C2.[O]=[99Tc+4] [[^99mTc]TRODAT-1],correlation (R) with TH IHC,[2],0.899
"COC(=O)C1C(c2ccc(I)cc2)CC2CCC1N2CCCF (stereo not drawn) [FP-CIT, N-(3-fluoropropyl)-2β-carboxymethoxy-3β-(4-iodophenyl) nortropane]","metabolite distribution in blood, brain, liver, urine EIC",[3]; 30 min after administration,mainly observed in all the EIC of metabolic pathways
COC(=O)C1C2CCC(CC1c1ccc(I)cc1)N2 (stereo not drawn) [nor-β-CIT],affinity for serotonin transporter relative to FP-CIT,[4],higher affinity for serotonin transporter than FP-CIT
same,"metabolite distribution in blood, brain, liver, urine EIC",[3]; 30 min after administration,mainly observed in all the EIC of metabolic pathways
COC(=O)[C@H]1C(c2ccc([123I])cc2)C[C@@H]2CC[C@H]1N2C (stereo partly drawn) [[^123I]β-CIT],correlation (R) with TH IHC,[2],0.911
same,correlation (R) with dopamine transporter IHC,[2],0.936
O=C(O)C1C2CCC(CC1c1ccc(I)cc1)N2 (stereo not drawn) [nor-β-CIT-acid],presence in brain samples,[3],Neither FP-CIT-acid nor nor-β-CIT-acid was observed in the brain samples
same,metabolite distribution,[3]; 60 min post-injection,"appeared in the blood, urine, and liver samples"
same,blood–brain barrier penetration,[5]; low-lipophilic metabolite of [^123I]FP-CIT,difficulty penetrating the BBB
COC(=O)[C@H]1[C@@H](c2ccc([123I])cc2)C[C@@H]2CC[C@H]1N2CCCF [[^123I]FP-CIT],correlation (R) with dopamine transporter IHC,[2],0.88
same,injected dose excreted,"[6]; till 6 h post-injection, male Wistar rats",approximately 10%
same,injected dose excreted,"[6]; until 72 h, animals",more than 80%
O=C(O)C1C(c2ccc(I)cc2)CC2CCC1N2CCCF (centres unmarked) [FP-CIT-acid],presence in brain samples,[3],Neither FP-CIT-acid nor nor-β-CIT-acid was observed in the brain samples
same,"metabolite distribution, urine",[3]; 30 min after administration,most distinctly observed in the urine samples
same,amount relative to other forms,[5],< 0.3%
same,blood–brain barrier penetration,[5],cannot penetrate the blood–brain barrier
